Results published in paper PMC12049818, “Identification of NUV-244 as a PNPLA3 I148M degrading small molecule” (iScience, 2025).

Molecular target: T1, PNPLA3 I148M-tagRFP (Homo sapiens, UniProt Q9NST1, I148M)
T1 construct: host or cells: Huh7
T1 sequence (Q9NST1 1-481 I148M): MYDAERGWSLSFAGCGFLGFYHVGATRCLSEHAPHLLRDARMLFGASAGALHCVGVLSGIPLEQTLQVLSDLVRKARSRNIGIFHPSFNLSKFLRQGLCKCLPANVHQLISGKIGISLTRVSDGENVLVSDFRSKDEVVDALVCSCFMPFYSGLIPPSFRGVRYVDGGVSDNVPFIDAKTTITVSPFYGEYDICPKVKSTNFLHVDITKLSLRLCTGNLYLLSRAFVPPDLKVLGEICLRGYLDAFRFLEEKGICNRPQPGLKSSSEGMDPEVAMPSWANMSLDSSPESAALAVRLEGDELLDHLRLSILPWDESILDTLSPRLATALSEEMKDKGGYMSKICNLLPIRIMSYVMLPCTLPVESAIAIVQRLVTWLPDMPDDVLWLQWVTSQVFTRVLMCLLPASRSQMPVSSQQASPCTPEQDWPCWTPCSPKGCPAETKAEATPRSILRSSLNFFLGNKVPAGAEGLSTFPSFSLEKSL
Experiment: Time-lapse imaging of PNPLA3 I148M-tagRFP on lipid droplets in Huh7 cells
Format: cell-based
Experimental: To evaluate the kinetics of NUV-244 mediated reduction and degradation of PNPLA3 I148M-tagRFP, we performed time-lapse studies to follow PNPLA3 I148M-tagRFP over time (Figures 5A and 5B). 1μM or 5μM NUV-244 leads to rapid onset of reduction of PNPLA3 I148M-tagRFP on lipid droplets with half maximum effect reached after approximately 2h. To evaluate if PNPLA3 I148M-tagRFP degradation is 26S proteasome dependent, 1μM Bortezomib was co-incubated with NUV-244. Proteasome inhibition prevents PNPLA3 I148M-tagRFP reduction from lipid droplets (Figures 5A and 5B). […] A recent paper identified the E3 ligase responsible for the turnover of endogenous PNPLA3, the ER associated E3 ligase BFAR.[18]
Huh7 cells expressing PNPLA3 I148M-tagRFP were seeded at 4000 cells/well in 30 μL media in 384-well imaging plates (Revvity, PhenoPlate) and stored in a 37°C incubator with 5% CO2 and 95% humidity overnight. Cells were then incubated with Bodipy diluted in growth medium (38nM final concentration) for 1h at 37°C with 5% CO2 and 95% humidity. Cells were treated with DMSO control, 1 μM or 5 μM NUV-244, with or without 1 μM Bortezomib or 5 μM MLN7243. Cells were imaged every 15 minutes over a 20-hour period using an Opera Phenix confocal spinning disc microscope system (Revvity) with a 20x water objective at 561 nm (tagRFP) and 488 nm (BODIPY). Images were analyzed using Harmony software. PNPLA3 I148M-tagRFP intensity on lipid droplets was quantified and compared between treatments.

effect of co-treatment on NUV-244 induced decrease of PNPLA3 I148M-tagRFP on lipid droplets (1μM co-treatment with 1μM or 5μM NUV-244)	effect of co-treatment on NUV-244 induced decrease of PNPLA3 I148M-tagRFP on lipid droplets (5μM co-treatment with 1μM or 5μM NUV-244)	SMILES
rescue of degradation	–	CC(C)C[C@H](NC(=O)[C@H](Cc1ccccc1)NC(=O)c1cnccn1)B(O)O [Bortezomib]
–	rescue of degradation	NS(=O)(=O)OC[C@H]1C[C@@H](Nc2ccnc3cc(-c4cccc(SC(F)(F)F)c4)nn23)[C@H](O)[C@@H]1O [MLN7243]
